“And” between values parts separate entries of the source, which are not always exact repeats. Equal values may be shown once. Read-outs that look alike come from different tables or passages of the source.
Columns and labels:
[1] = mouse, minimum effective dose 2 mg/kg IP; cited from earlier work
[2] = mouse; cited from earlier work
[3] = Single ascending dose study NP10679-101, plasma pharmacokinetics; assay type: in vivo, human; details: for half-life: healthy volunteers, SAD and MAD studies overall; for Vd: SAD
[4] = tested on: murine MCAO model of ischemic brain injury; details: cited from earlier work
healthy adult volunteers = assay: Multiple ascending dose study NP10679-102, safety and tolerability; assay type: in vivo, human; details: MAD; for Subjects with at least one TEAE / TEAE, system organ class: Blood and lymphatic system disorders / TEAE, system organ class: Eye disorders / TEAE, system organ class: Gastrointestinal disorders / TEAE, system organ class: General disorders and administration site conditions / TEAE, system organ class: Injury, poisoning and procedural complications / TEAE, system organ class: Investigations / TEAE, system organ class: Musculoskeletal and connective tissue disorders / TEAE, system organ class: Nervous system disorders / TEAE, system organ class: Skin and subcutaneous tissue disorders / TEAE, system organ class: Vascular disorders / TEAE: Anaemia / TEAE: Asthenia / TEAE: Back pain / TEAE: Blood pressure diastolic decreased / TEAE: Contusion / TEAE: Dizziness / TEAE: Dysgeusia / TEAE: Erythema / TEAE: Fatigue / TEAE: Head injury / TEAE: Headache / TEAE: Nausea / TEAE: Pain / TEAE: Peripheral swelling / TEAE: Phlebitis / TEAE: Somnolence / TEAE: Syncope / TEAE: Vision blurred: N = 6

## O=C1CCc2cc(OC[C@H](O)CN3CCN(c4ccc(C(F)(F)F)cc4)CC3)ccc2N1 [NP10679, (R)-6-(2-Hydroxy-3-(4-(4-(trifluoromethyl)phenyl)piperazin-1-yl)propoxy)-3,4-dihydroquinolin-2(1H)-one]
[1]
  AUC(0-inf): 5690 ng·h/mL
  Cmax: 581 ng/mL
[2]
  oral availability F%: 76%
[3]
  half-life: ~ 20 h
[3]; human, plasma, intravenous
  clearance: 163 to 200 mL/min
[3]; human, plasma, intravenous, half-life
  half-life: 20 h
[3]; human, plasma, intravenous, volume of distribution
  Vd: > 221 L
[3]; human, plasma, iv, 5 mg
  AUC(0-inf): 553 ± 204 ng·h/mL
  AUC(0-t): 335 ± 46 ng·h/mL
  Cmax: 27 ± 15 ng/mL
  clearance: 163 mL/min
[3]; human, plasma, iv, 5 mg, VSS, single IV infusion 5 mg, mean ± SD
  Vd: 435 ± 178 L
[3]; human, plasma, iv, 5 mg, Vd, area, mean, single IV infusion 5 mg
  Vd: 396 L
[3]; human, plasma, iv, 15 mg
  AUC(0-inf): 1280 ± 227 ng·h/mL
  AUC(0-t): 1140 ± 233 ng·h/mL
  Cmax: 99 ± 67 ng/mL
  clearance: 200 mL/min
[3]; human, plasma, iv, 15 mg, VSS, single IV infusion 15 mg, mean ± SD
  Vd: 306 ± 41 L
[3]; human, plasma, iv, 15 mg, Vd, area, mean, single IV infusion 15 mg
  Vd: 346 L
[3]; human, plasma, iv, 50 mg
  AUC(0-inf): 4680 ± 797 ng·h/mL
  AUC(0-t): 3980 ± 544 ng·h/mL
  Cmax: 415 ± 107 ng/mL
  clearance: 183 mL/min
[3]; human, plasma, iv, 50 mg, VSS, single IV infusion 50 mg, mean ± SD
  Vd: 255 ± 20 L
[3]; human, plasma, iv, 50 mg, Vd, area, mean, single IV infusion 50 mg
  Vd: 286 L
[3]; human, plasma, iv, 100 mg
  AUC(0-inf): 9860 ± 3220 ng·h/mL
  AUC(0-t): 9370 ± 3090 ng·h/mL
  Cmax: 746 ± 223 ng/mL
  clearance: 183 mL/min
[3]; human, plasma, iv, 100 mg, VSS, single IV infusion 100 mg, mean ± SD
  Vd: 259 ± 57 L
[3]; human, plasma, iv, 100 mg, Vd, area, mean, single IV infusion 100 mg
  Vd: 317 L
[3]; human, plasma, iv, 150 mg
  AUC(0-inf): 13900 ± 1280 ng·h/mL
  AUC(0-t): 13600 ± 1220 ng·h/mL
  Cmax: 954 ± 370 ng/mL
  clearance: 183 mL/min
[3]; human, plasma, iv, 150 mg, VSS, single IV infusion 150 mg, mean ± SD
  Vd: 250 ± 23 L
[3]; human, plasma, iv, 150 mg, Vd, area, mean, single IV infusion 150 mg
  Vd: 286 L
[3]; human, plasma, iv, 200 mg
  AUC(0-inf): 20200 ± 4600 ng·h/mL
  AUC(0-t): 19700 ± 4370 ng·h/mL
  Cmax: 2070 ± 798 ng/mL
  clearance: 167 mL/min
[3]; human, plasma, iv, 200 mg, VSS, single IV infusion 200 mg, mean ± SD
  Vd: 221 ± 34 L
[3]; human, plasma, iv, 200 mg, Vd, area, mean, single IV infusion 200 mg
  Vd: 245 L
[4]; IP, mouse
  minimum effective dose in the MCAO model: 2 mg/kg
[4]; administered 15 minutes prior to occlusion
  infarct volume: effective in reducing infarct volume
Healthy adult volunteers
  dissociative symptoms or cognitive impairment (CADSS, DSST): no evidence
  serious adverse events (SAEs): No serious adverse events
Healthy adult volunteers; 25 mg IV once daily x 5 days
  Subjects with at least one TEAE: 5 (83.3%) n (%)
  TEAE, system organ class: Blood and lymphatic system disorders: 2 (33.3%) n (%)
  TEAE, system organ class: Eye disorders: 0 n (%)
  TEAE, system organ class: Gastrointestinal disorders: 0 n (%)
  TEAE, system organ class: General disorders and administration site conditions: 1 (16.7%) n (%)
  TEAE, system organ class: Injury, poisoning and procedural complications: 2 (33.3%) n (%)
  TEAE, system organ class: Investigations: 1 (16.7%) n (%)
  TEAE, system organ class: Musculoskeletal and connective tissue disorders: 0 n (%)
  TEAE, system organ class: Nervous system disorders: 3 (50.0%) n (%)
  TEAE, system organ class: Skin and subcutaneous tissue disorders: 0 n (%)
  TEAE, system organ class: Vascular disorders: 0 n (%)
  TEAE: Anaemia: 2 (33.3%) n (%)
  TEAE: Asthenia: 0 n (%)
  TEAE: Back pain: 0 n (%)
  TEAE: Blood pressure diastolic decreased: 1 (16.7%) n (%)
  TEAE: Contusion: 2 (33.3%) n (%)
  TEAE: Dizziness: 0 n (%)
  TEAE: Dysgeusia: 1 (16.7%) n (%)
  TEAE: Erythema: 0 n (%)
  TEAE: Fatigue: 1 (16.7%) n (%)
  TEAE: Head injury: 0 n (%)
  TEAE: Headache: 2 (33.3%) n (%)
  TEAE: Nausea: 0 n (%)
  TEAE: Pain: 0 n (%)
  TEAE: Peripheral swelling: 0 n (%)
  TEAE: Phlebitis: 0 n (%)
  TEAE: Somnolence: 0 n (%)
  TEAE: Syncope: 0 n (%)
  TEAE: Vision blurred: 0 n (%)
Healthy adult volunteers; 50 mg IV once daily x 5 days
  Subjects with at least one TEAE: 3 (50.0%) n (%)
  TEAE, system organ class: Blood and lymphatic system disorders: 0 n (%)
  TEAE, system organ class: Eye disorders: 0 n (%)
  TEAE, system organ class: Gastrointestinal disorders: 0 n (%)
  TEAE, system organ class: General disorders and administration site conditions: 2 (33.3%) n (%)
  TEAE, system organ class: Injury, poisoning and procedural complications: 1 (16.7%) n (%)
  TEAE, system organ class: Investigations: 0 n (%)
  TEAE, system organ class: Musculoskeletal and connective tissue disorders: 0 n (%)
  TEAE, system organ class: Nervous system disorders: 3 (50.0%) n (%)
  TEAE, system organ class: Skin and subcutaneous tissue disorders: 1 (16.7%) n (%)
  TEAE, system organ class: Vascular disorders: 0 n (%)
  TEAE: Anaemia: 0 n (%)
  TEAE: Asthenia: 0 n (%)
  TEAE: Back pain: 0 n (%)
  TEAE: Blood pressure diastolic decreased: 0 n (%)
  TEAE: Contusion: 1 (16.7%) n (%)
  TEAE: Dizziness: 0 n (%)
  TEAE: Dysgeusia: 0 n (%)
  TEAE: Erythema: 1 (16.7%) n (%)
  TEAE: Fatigue: 1 (16.7%) n (%)
  TEAE: Head injury: 0 n (%)
  TEAE: Headache: 0 n (%)
  TEAE: Nausea: 0 n (%)
  TEAE: Pain: 1 (16.7%) n (%)
  TEAE: Peripheral swelling: 1 (16.7%) n (%)
  TEAE: Phlebitis: 0 n (%)
  TEAE: Somnolence: 3 n (%) and 3 (50.0%) n (%)
  TEAE: Syncope: 0 n (%)
  TEAE: Vision blurred: 0 n (%)
Healthy adult volunteers; 100 mg IV once daily x 5 days
  Subjects with at least one TEAE: 6 (100%) n (%)
  TEAE, system organ class: Blood and lymphatic system disorders: 1 (16.7%) n (%)
  TEAE, system organ class: Eye disorders: 0 n (%)
  TEAE, system organ class: Gastrointestinal disorders: 1 (16.7%) n (%)
  TEAE, system organ class: General disorders and administration site conditions: 1 (16.7%) n (%)
  TEAE, system organ class: Injury, poisoning and procedural complications: 1 (16.7%) n (%)
  TEAE, system organ class: Investigations: 0 n (%)
  TEAE, system organ class: Musculoskeletal and connective tissue disorders: 0 n (%)
  TEAE, system organ class: Nervous system disorders: 4 (66.7%) n (%)
  TEAE, system organ class: Skin and subcutaneous tissue disorders: 0 n (%)
  TEAE, system organ class: Vascular disorders: 1 (16.7%) n (%)
  TEAE: Anaemia: 1 (16.7%) n (%)
  TEAE: Asthenia: 1 (16.7%) n (%)
  TEAE: Back pain: 0 n (%)
  TEAE: Blood pressure diastolic decreased: 0 n (%)
  TEAE: Contusion: 0 n (%)
  TEAE: Dizziness: 0 n (%)
  TEAE: Dysgeusia: 0 n (%)
  TEAE: Erythema: 0 n (%)
  TEAE: Fatigue: 0 n (%)
  TEAE: Head injury: 1 (16.7%) n (%)
  TEAE: Headache: 2 (33.3%) n (%)
  TEAE: Nausea: 1 (16.7%) n (%)
  TEAE: Pain: 1 (16.7%) n (%)
  TEAE: Peripheral swelling: 0 n (%)
  TEAE: Phlebitis: 1 (16.7%) n (%)
  TEAE: Somnolence: 3 n (%) and 3 (50.0%) n (%)
  TEAE: Syncope: 1 (16.7%) n (%)
  TEAE: Vision blurred: 0 n (%)
Healthy adult volunteers; 5 days of dosing
  somnolence upon repeat dosing: no signs of increased somnolence

Source: PMC10329973 (Clinical pharmacology in drug development, 2023)
